Test results taken from ChEMBL document CHEMBL1153245, “A profile of the in vitro anti-tumor activity of imidazolium-based ionic liquids” (2010).

Legend:
Format in all cases: functional
RXF 393 [1] = assay: Anticancer activity against human RXF393 cells after 48 hrs by sulforhodamine B assay; conditions: Homo sapiens, RXF 393, 48 h
HT-29 = assay: Anticancer activity against human HT-29 cells after 48 hrs by sulforhodamine B assay; conditions: Homo sapiens, HT-29, 48 h; for CC50: read-out: LC50 (the source's name)
PC-3 = assay: Anticancer activity against human PC3 cells assessed cell growth at 10 uM after 48 hrs by sulforhodamine B assay relative to control
SW-620 = assay: Anticancer activity against human SW620 cells after 48 hrs by sulforhodamine B assay
LOX IMVI [2] = assay: Anticancer activity against human LOXIMVI cells assessed cell growth at 10 uM after 48 hrs by sulforhodamine B assay relative to control
CAKI-1 = assay: Anticancer activity against human Caki1 cells after 48 hrs by sulforhodamine B assay; conditions: Homo sapiens, CAKI-1, 48 h
T47D = assay: Anticancer activity against human T47D cells after 48 hrs by sulforhodamine B assay; conditions: Homo sapiens, T47D, 48 h; for CC50: read-out: LC50 (the source's name)
OVCAR-3 = assay: Anticancer activity against human OVCAR-3 cells after 48 hrs by sulforhodamine B assay; conditions: Homo sapiens, OVCAR-3, 48 h
MDA-MB-435 = assay: Anticancer activity against human MDA-MB-435 cells after 48 hrs by sulforhodamine B assay; conditions: Homo sapiens, MDA-MB-435, 48 h; for CC50: read-out: LC50 (the source's name)
K562 = assay: Anticancer activity against human K562 cells after 48 hrs by sulforhodamine B assay; conditions: Homo sapiens, K562, 48 h; for CC50: read-out: LC50 (the source's name)
NCI-H460 = assay: Anticancer activity against human NCI-H460 cells assessed cell growth at 10 uM after 48 hrs by sulforhodamine B assay relative to control
SR = assay: Anticancer activity against human SR cells after 48 hrs by sulforhodamine B assay; conditions: Homo sapiens, SR, 48 h; for CC50: read-out: LC50 (the source's name)
TK-10 = assay: Anticancer activity against human TK10 cells assessed cell growth at 10 uM after 48 hrs by sulforhodamine B assay relative to control
HCC 2998 = assay: Anticancer activity against human HCC2998 cells after 48 hrs by sulforhodamine B assay; conditions: for CC50: read-out: LC50 (the source's name)
UO-31 = assay: Anticancer activity against human UO31 cells assessed cell growth at 10 uM after 48 hrs by sulforhodamine B assay relative to control
MDA-MB-231 = assay: Anticancer activity against human MDA-MB-231 cells after 48 hrs by sulforhodamine B assay; conditions: Homo sapiens, MDA-MB-231, 48 h; for CC50: read-out: LC50 (the source's name)
HCT-15 = assay: Anticancer activity against human HCT15 cells after 48 hrs by sulforhodamine B assay; conditions: Homo sapiens, HCT-15, 48 h; for CC50: read-out: LC50 (the source's name)
OVCAR-8 = assay: Anticancer activity against human OVCAR8 cells assessed cell growth at 10 uM after 48 hrs by sulforhodamine B assay relative to control
NCI/ADR-RES = assay: Anticancer activity against human NCI/ADR-RES cells after 48 hrs by sulforhodamine B assay; conditions: Homo sapiens, NCI/ADR-RES, 48 h
M14 = assay: Anticancer activity against human M14 cells after 48 hrs by sulforhodamine B assay
MOLT-4 = assay: Anticancer activity against human MOLT4 cells after 48 hrs by sulforhodamine B assay; conditions: Homo sapiens, MOLT-4, 48 h
COLO 205 = assay: Anticancer activity against human COLO205 cells after 48 hrs by sulforhodamine B assay; conditions: Homo sapiens, COLO 205, 48 h; for CC50: read-out: LC50 (the source's name)
MCF7 [3] = assay: Anticancer activity against human MCF7 cells after 48 hrs by sulforhodamine B assay; conditions: Homo sapiens, MCF7, 48 h
SK-OV-3 = assay: Anticancer activity against human SKOV3 cells after 48 hrs by sulforhodamine B assay; conditions: Homo sapiens, SK-OV-3, 48 h; for CC50: read-out: LC50 (the source's name)
OVCAR-4 = assay: Anticancer activity against human OVCAR4 cells after 48 hrs by sulforhodamine B assay; conditions: Homo sapiens, OVCAR-4, 48 h; for CC50: read-out: LC50 (the source's name)
MDA-MB-468 = assay: Anticancer activity against human MDA-MB-468 cells assessed cell growth at 10 uM after 48 hrs by sulforhodamine B assay relative to control
BT-549 = assay: Anticancer activity against human BT549 cells after 48 hrs by sulforhodamine B assay; conditions: Homo sapiens, BT-549, 48 h; for CC50: read-out: LC50 (the source's name)
HOP-92 = assay: Anticancer activity against human HOP92 cells after 48 hrs by sulforhodamine B assay; conditions: Homo sapiens, HOP-92, 48 h; for CC50: read-out: LC50 (the source's name)
786-0 = assay: Anticancer activity against human 786-0 cells after 48 hrs by sulforhodamine B assay; conditions: Homo sapiens, 786-0, 48 h
LOX IMVI [4] = assay: Anticancer activity against human LOXIMVI cells after 48 hrs by sulforhodamine B assay; conditions: Homo sapiens, LOX IMVI, 48 h; for CC50: read-out: LC50 (the source's name)
UACC-257 = assay: Anticancer activity against human UACC257 cells after 48 hrs by sulforhodamine B assay; conditions: Homo sapiens, UACC-257, 48 h
SK-MEL-5 = assay: Anticancer activity against human SK-MEL-5 cells after 48 hrs by sulforhodamine B assay; conditions: for CC50: read-out: LC50 (the source's name)
MCF7 [5] = assay: Anticancer activity against human MCF7 cells assessed cell growth at 10 uM after 48 hrs by sulforhodamine B assay relative to control
HOP-62 = assay: Anticancer activity against human HOP62 cells assessed cell growth at 10 uM after 48 hrs by sulforhodamine B assay relative to control
SN12C = assay: Anticancer activity against human SN12C cells after 48 hrs by sulforhodamine B assay; conditions: Homo sapiens, SN12C, 48 h
[6] = Anticancer activity against human […] cells after 48 hrs by sulforhodamine B assay; conditions: for CC50: read-out: LC50 (the source's name)
RXF 393 [7] = assay: Anticancer activity against human RXF393 cells assessed cell growth at 10 uM after 48 hrs by sulforhodamine B assay relative to control
IGROV-1 = assay: Anticancer activity against human IGROV1 cells assessed cell growth at 10 uM after 48 hrs by sulforhodamine B assay relative to control
NCI-H322M = assay: Anticancer activity against human NCI-H322M cells assessed cell growth at 10 uM after 48 hrs by sulforhodamine B assay relative to control
A549 = assay: Anticancer activity against human A549 cells assessed cell growth at 10 uM after 48 hrs by sulforhodamine B assay relative to control
SNB-19 = assay: Anticancer activity against human SNB19 cells assessed cell growth at 10 uM after 48 hrs by sulforhodamine B assay relative to control

## CCCCCCCCCCCCCCCC[n+]1ccn(C)c1.[Cl-]
RXF 393 [1]
  GI50: 0.379 µM
HT-29
  GI50: 0.311 µM
  CC50: 5.06 µM
PC-3
  Activity: -100%
SW-620; Homo sapiens, SW-620, 48 h
  GI50: 0.461 µM
LOX IMVI [2]
  Activity: -50.37%
CAKI-1
  GI50: 0.385 µM
T47D
  GI50: 0.564 µM
  CC50: > 100 µM
OVCAR-3
  GI50: 0.414 µM
MDA-MB-435
  GI50: 0.482 µM
  CC50: 6.98 µM
K562
  GI50: 0.19 µM
  CC50: 3.49 µM
NCI-H460
  Activity: -87.94%
SR
  GI50: 0.1 µM
  CC50: 4.38 µM
TK-10
  Activity: -80.37%
HCC 2998; Homo sapiens, HCC 2998, 48 h
  GI50: 0.192 µM
  CC50: 7.29 µM
UO-31
  Activity: -85.85%
MDA-MB-231
  GI50: 0.616 µM
  CC50: 4.55 µM
HCT-15
  GI50: 1 µM
  CC50: 4.65 µM
OVCAR-8
  Activity: -53.71%
NCI/ADR-RES
  GI50: 2.1 µM
M14; Homo sapiens, M14, 48 h
  GI50: 0.343 µM
MOLT-4
  GI50: 0.306 µM
COLO 205
  GI50: 0.343 µM
  CC50: > 100 µM
MCF7 [3]
  GI50: 0.431 µM
SK-OV-3
  GI50: 1.27 µM
  CC50: > 100 µM
OVCAR-4
  GI50: 0.594 µM
  CC50: 7.2 µM
MDA-MB-468
  Activity: -78.99%
BT-549
  GI50: 1.04 µM
  CC50: 5.92 µM
HOP-92
  GI50: 1.02 µM
  CC50: 7.3 µM
786-0
  GI50: 1.18 µM
LOX IMVI [4]
  GI50: 0.334 µM
  CC50: 3.78 µM
UACC-257
  GI50: 1.12 µM
SK-MEL-5; Homo sapiens, SK-MEL-5, 48 h
  GI50: 0.461 µM
  CC50: 4.19 µM
MCF7 [5]
  Activity: -79.92%
HOP-62
  Activity: -82.71%
SN12C
  GI50: 1 µM
[6]; Homo sapiens, RPMI8266, 48 h
  GI50: 0.24 µM
  CC50: 0.764 µM
RXF 393 [7]
  Activity: -66.19%
IGROV-1
  Activity: -67.13%
NCI-H322M
  Activity: 8.28%
A549
  Activity: -50.92%
SNB-19
  Activity: -75.88%

## CCCCCCCCCCCC[n+]1ccn(C)c1.[Cl-]
RXF 393 [1]
  GI50: 5.9 µM
HT-29
  GI50: 2.6 µM
  CC50: > 100 µM
PC-3
  Activity: 75.39%
SW-620
  GI50: 2.97 µM
LOX IMVI [2]
  Activity: 23.94%
CAKI-1
  GI50: 1.79 µM
T47D
  GI50: 4.29 µM
  CC50: > 100 µM
OVCAR-3
  GI50: 2.84 µM
MDA-MB-435
  GI50: 1.79 µM
  CC50: 69.1 µM
K562
  GI50: 0.498 µM
  CC50: > 100 µM
NCI-H460
  Activity: 23.64%
SR
  GI50: 0.597 µM
  CC50: 97.6 µM
TK-10
  Activity: -1.53%
HCC 2998
  GI50: 1.89 µM
HCC 2998; Homo sapiens, HCC 2998, 48 h
  CC50: > 100 µM
UO-31
  Activity: 65.71%
MDA-MB-231
  GI50: 3.39 µM
  CC50: 63.6 µM
HCT-15
  GI50: 20.8 µM
  CC50: > 100 µM
OVCAR-8
  Activity: 11.53%
NCI/ADR-RES
  GI50: 55 µM
M14
  GI50: 1.92 µM
MOLT-4
  GI50: 2.9 µM
COLO 205
  GI50: 2.62 µM
  CC50: > 100 µM
MCF7 [3]
  GI50: 1.69 µM
SK-OV-3
  GI50: 4.76 µM
  CC50: > 100 µM
OVCAR-4
  GI50: 3.17 µM
  CC50: > 100 µM
MDA-MB-468
  Activity: -42.1%
BT-549
  GI50: 1.84 µM
  CC50: 50.8 µM
HOP-92
  GI50: 5.3 µM
  CC50: > 100 µM
786-0
  GI50: 3.36 µM
LOX IMVI [4]
  GI50: 1.72 µM
  CC50: 45.3 µM
UACC-257
  GI50: 1.68 µM
SK-MEL-5; Homo sapiens, SK-MEL-5, 48 h
  GI50: 1.22 µM
SK-MEL-5
  CC50: 7.8 µM
MCF7 [5]
  Activity: 3.94%
HOP-62
  Activity: 38.17%
SN12C
  GI50: 2.76 µM
[6]
  GI50: 0.109 µM
[6]; Homo sapiens, RPMI8266, 48 h
  CC50: 6.13 µM
RXF 393 [7]
  Activity: -20.81%
NCI-H322M
  Activity: 57.06%
A549
  Activity: 32.62%
SNB-19
  Activity: 45.54%
